Key:
[1] = In vivo biodistribution in mice; design: species or system normal CD-1 male mice; conditions: iv
Description: Biodistribution experiments were performed by intravenously administering ^68Ga labeled 1a-h, 2, 3, BPAMD, and [^18F]NaF into normal, healthy male CD-1 mice (25-30 g). The injection activity was 20-30 μCi/animal. […] Organs of interest were harvested, weighed, and counts of radioactivity were measured by a gamma counter. The biodistribution of each sample was calculated as a percentage of the injected dose per gram of wet tissue weight (% ID/g). Tibia and femur bones were harvested and counted as bone samples.

[2] = In vitro binding to hydroxyapatite; conditions: 20 mg hydroxyapatite in saline, 10 min at room temperature
Description: Hydroxyapatite (20 mg, Sigma-Aldrich, reagent grade powder) was incubated in isotonic saline (1 mL) for 24 h. Subsequently, either ^68Ga labeled 1a-h, 2, 3, BPAMD, or [^18F]NaF (1 μCi) was added to the hydroxyapatite suspension. After vortexing for 10 seconds, the suspension was incubated for 10 min at room temperature. The samples were then centrifuged at 10,000 rpm for 3 min and the supernatant was removed. The hydroxyapatite fraction was washed twice with saline (1 mL). Radioactivity in the combined supernatants and the hydroxyapatite fraction was measured using a gamma counter. The proportion of the ^68Ga complex binding to hydroxyapatite was determined as percent of ^68Ga absorbed to hydroxyapatite.

## O=C([O-])CN(CCN(CC(=O)[O-])Cc1cc(CCC(=O)NC(P(=O)(O)O)P(=O)(O)O)ccc1[O-])Cc1cc(CCC(=O)NCC(=O)O)ccc1[O-].[68Ga+3] [[^68Ga]1c]
[1]; 2 min
  bone to blood ratio: 0.7
  bone to muscle ratio: 5
[1]; 2 min post injection
  Biodistribution: Blood: 11.7 ± 0.55 % dose/g
  Biodistribution: Bone: 8.40 ± 1.32 % dose/g
  Biodistribution: Brain: 0.27 ± 0.06 % dose/g
  Biodistribution: Heart: 4.57 ± 0.45 % dose/g
  Biodistribution: Kidney: 27.7 ± 5.46 % dose/g
  Biodistribution: Liver: 4.78 ± 0.18 % dose/g
  Biodistribution: Lung: 5.66 ± 0.24 % dose/g
  Biodistribution: Muscle: 1.68 ± 0.11 % dose/g
  Biodistribution: Pancreas: 1.99 ± 0.23 % dose/g
  Biodistribution: Skin: 2.05 ± 0.16 % dose/g
  Biodistribution: Spleen: 3.41 ± 0.08 % dose/g
[1]; 30 min
  bone to blood ratio: 8
  bone to muscle ratio: 49
[1]; 30 min (0.5 hr) post injection
  Biodistribution: Blood: 1.34 ± 0.32 % dose/g
  Biodistribution: Bone: 11.3 ± 0.26 % dose/g
  Biodistribution: Brain: 0.05 ± 0.02 % dose/g
  Biodistribution: Heart: 0.49 ± 0.07 % dose/g
  Biodistribution: Kidney: 2.58 ± 0.05 % dose/g
  Biodistribution: Liver: 2.21 ± 0.27 % dose/g
  Biodistribution: Lung: 0.84 ± 0.11 % dose/g
  Biodistribution: Muscle: 0.23 ± 0.05 % dose/g
  Biodistribution: Pancreas: 0.39 ± 0.05 % dose/g
  Biodistribution: Skin: 0.53 ± 0.18 % dose/g
  Biodistribution: Spleen: 0.97 ± 0.01 % dose/g
[1]; 60 min
  bone to blood ratio: 23
  bone to muscle ratio: 102
[1]; 60 min (1 hr) post injection
  Biodistribution: Blood: 0.64 ± 0.17 % dose/g
  Biodistribution: Bone: 14.7 ± 0.66 % dose/g
  Biodistribution: Brain: 0.03 ± 0.01 % dose/g
  Biodistribution: Heart: 0.24 ± 0.08 % dose/g
  Biodistribution: Kidney: 1.88 ± 0.10 % dose/g
  Biodistribution: Liver: 1.85 ± 0.11 % dose/g
  Biodistribution: Lung: 0.42 ± 0.08 % dose/g
  Biodistribution: Muscle: 0.14 ± 0.01 % dose/g
  Biodistribution: Pancreas: 0.23 ± 0.02 % dose/g
  Biodistribution: Skin: 0.33 ± 0.03 % dose/g
  Biodistribution: Spleen: 0.74 ± 0.10 % dose/g
[1]; 120 min
  bone to blood ratio: 39
  bone to muscle ratio: 103
[1]; 120 min post injection
  Biodistribution: Blood: 0.41 ± 0.07 % dose/g
  Biodistribution: Bone: 16.1 ± 2.71 % dose/g
  Biodistribution: Brain: 0.02 ± 0.01 % dose/g
  Biodistribution: Heart: 0.19 ± 0.03 % dose/g
  Biodistribution: Kidney: 2.05 ± 0.27 % dose/g
  Biodistribution: Liver: 1.99 ± 0.09 % dose/g
  Biodistribution: Lung: 0.31 ± 0.06 % dose/g
  Biodistribution: Muscle: 0.16 ± 0.01 % dose/g
  Biodistribution: Pancreas: 0.20 ± 0.03 % dose/g
  Biodistribution: Skin: 0.31 ± 0.04 % dose/g
  Biodistribution: Spleen: 0.71 ± 0.29 % dose/g
[2]
  Hydroxyapatite Binding (%): 89.1 ± 1.0%

## C[C@H](NC(=O)CCc1ccc([O-])c(CN(CCN(CC(=O)[O-])Cc2cc(CCC(=O)NC(P(=O)(O)O)P(=O)(O)O)ccc2[O-])CC(=O)[O-])c1)C(=O)O.[68Ga+3] [[^68Ga]1d]
[1]; 2 min
  bone to blood ratio: 1.1
  bone to muscle ratio: 5.9
[1]; 2 min post injection
  Biodistribution: Blood: 9.08 ± 0.58 % dose/g
  Biodistribution: Bone: 10.1 ± 2.05 % dose/g
  Biodistribution: Brain: 0.29 ± 0.05 % dose/g
  Biodistribution: Heart: 2.99 ± 0.26 % dose/g
  Biodistribution: Kidney: 25.3 ± 3.89 % dose/g
  Biodistribution: Liver: 1.89 ± 0.16 % dose/g
  Biodistribution: Lung: 4.83 ± 0.25 % dose/g
  Biodistribution: Muscle: 1.72 ± 0.15 % dose/g
  Biodistribution: Pancreas: 1.53 ± 0.14 % dose/g
  Biodistribution: Skin: 2.39 ± 0.13 % dose/g
  Biodistribution: Spleen: 1.72 ± 0.24 % dose/g
[1]; 30 min
  bone to blood ratio: 29
  bone to muscle ratio: 64
[1]; 30 min (0.5 hr) post injection
  Biodistribution: Blood: 0.53 ± 0.13 % dose/g
  Biodistribution: Bone: 15.3 ± 1.26 % dose/g
  Biodistribution: Brain: 0.03 ± 0.00 % dose/g
  Biodistribution: Heart: 0.26 ± 0.06 % dose/g
  Biodistribution: Kidney: 2.14 ± 0.60 % dose/g
  Biodistribution: Liver: 0.26 ± 0.09 % dose/g
  Biodistribution: Lung: 0.45 ± 0.10 % dose/g
  Biodistribution: Muscle: 0.24 ± 0.06 % dose/g
  Biodistribution: Pancreas: 0.21 ± 0.12 % dose/g
  Biodistribution: Skin: 0.42 ± 0.10 % dose/g
  Biodistribution: Spleen: 0.21 ± 0.07 % dose/g
[1]; 60 min
  bone to blood ratio: 144
  bone to muscle ratio: 235
[1]; 60 min (1 hr) post injection
  Biodistribution: Blood: 0.10 ± 0.01 % dose/g
  Biodistribution: Bone: 14.7 ± 0.50 % dose/g
  Biodistribution: Brain: 0.01 ± 0.00 % dose/g
  Biodistribution: Heart: 0.08 ± 0.01 % dose/g
  Biodistribution: Kidney: 1.05 ± 0.17 % dose/g
  Biodistribution: Liver: 0.12 ± 0.01 % dose/g
  Biodistribution: Lung: 0.17 ± 0.01 % dose/g
  Biodistribution: Muscle: 0.06 ± 0.00 % dose/g
  Biodistribution: Pancreas: 0.06 ± 0.01 % dose/g
  Biodistribution: Skin: 0.13 ± 0.01 % dose/g
  Biodistribution: Spleen: 0.06 ± 0.00 % dose/g
[1]; 120 min
  bone to blood ratio: 278
  bone to muscle ratio: 417
[1]; 120 min post injection
  Biodistribution: Blood: 0.06 ± 0.02 % dose/g
  Biodistribution: Bone: 17.0 ± 1.10 % dose/g
  Biodistribution: Brain: 0.00 ± 0.00 % dose/g
  Biodistribution: Heart: 0.06 ± 0.01 % dose/g
  Biodistribution: Kidney: 0.91 ± 0.15 % dose/g
  Biodistribution: Liver: 0.10 ± 0.01 % dose/g
  Biodistribution: Lung: 0.09 ± 0.02 % dose/g
  Biodistribution: Muscle: 0.04 ± 0.01 % dose/g
  Biodistribution: Pancreas: 0.04 ± 0.01 % dose/g
  Biodistribution: Skin: 0.09 ± 0.01 % dose/g
  Biodistribution: Spleen: 0.05 ± 0.01 % dose/g
[2]
  Hydroxyapatite Binding (%): 95.1 ± 0.5%

— patent US10253052B2, “HBED-bisphosphonates, radiometal conjugates and their use as theranostic agents” (Five Eleven Pharma Inc., priority 2015, dated 2019)
